Measured values: patent US7572603B2, “Alpha-2 adrenergic receptor polymorphisms” (University of Cincinnati, priority 2000, dated 2009)
Where a chain is given by its changes, count along the chain named. Values belong to the compound of their own block, whether it stands above or below them.

Columns and labels:
[1] = target: T1, Lys251 alpha-2AAR (Homo sapiens, UniProt P08913, N266K); test: [35S]GTPyS binding, COS-7 membranes coexpressing receptor and Gi alpha2; format: biochemical; parameters: expressed in transfected cells; membranes or intact cells; details: 10 μM agonist
T1 sequence (P08913 16-465 N266K): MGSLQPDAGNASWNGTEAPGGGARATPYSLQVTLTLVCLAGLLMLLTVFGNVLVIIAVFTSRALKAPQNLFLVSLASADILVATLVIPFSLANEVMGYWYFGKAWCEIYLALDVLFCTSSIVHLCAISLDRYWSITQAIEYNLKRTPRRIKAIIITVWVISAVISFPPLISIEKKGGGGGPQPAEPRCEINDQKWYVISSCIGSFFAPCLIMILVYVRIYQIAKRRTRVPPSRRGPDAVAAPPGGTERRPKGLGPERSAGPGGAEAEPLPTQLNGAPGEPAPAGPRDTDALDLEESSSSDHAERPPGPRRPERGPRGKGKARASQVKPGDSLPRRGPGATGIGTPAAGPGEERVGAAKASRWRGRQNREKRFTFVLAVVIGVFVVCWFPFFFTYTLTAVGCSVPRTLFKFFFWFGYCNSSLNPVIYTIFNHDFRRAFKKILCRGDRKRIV
Experimental: Nonspecific binding was measured in the presence of […] GTPyS.

[2] = target: T2, wild-type alpha-2CAR (Homo sapiens, UniProt P18825, L239R/R446P/S401I); test: Inhibition of forskolin-stimulated adenylyl cyclase, CHO cell membranes; format: biochemical; parameters: expressed in transfected cells; membranes or intact cells; details: for Max Inhibition (%) of adenylyl cyclase: CHO line expressing 1570 ± 79.9 fmol/mg
T2 sequence (P18825 1-462 L239R/S401I/R446P): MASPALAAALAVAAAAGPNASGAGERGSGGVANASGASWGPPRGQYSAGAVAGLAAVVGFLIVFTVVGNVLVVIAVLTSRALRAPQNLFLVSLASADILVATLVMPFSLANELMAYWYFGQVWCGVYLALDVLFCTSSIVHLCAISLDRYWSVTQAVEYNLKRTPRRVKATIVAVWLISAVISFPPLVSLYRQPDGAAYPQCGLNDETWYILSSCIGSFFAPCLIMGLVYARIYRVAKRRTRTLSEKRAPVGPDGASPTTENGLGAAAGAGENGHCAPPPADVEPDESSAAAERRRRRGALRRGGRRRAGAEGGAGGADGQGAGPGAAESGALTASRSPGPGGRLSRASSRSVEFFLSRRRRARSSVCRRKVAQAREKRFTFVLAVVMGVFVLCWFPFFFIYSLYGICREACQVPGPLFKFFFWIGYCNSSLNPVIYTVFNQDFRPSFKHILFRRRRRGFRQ

[3] = target: T3, wild-type alpha-2CAR (Homo sapiens, UniProt P18825); test: as above; format: biochemical; details: CHO line expressing 1570 ± 79.9 fmol/mg
T3 construct: expressed in transfected cells; membranes or intact cells
T3 sequence (P18825 1-462 L239R/S401I/R446P): T2 sequence (P18825 1-462 L239R/S401I/R446P)

[4] = target: T2, wild-type alpha-2CAR; details: 10 μM epinephrine, 5 min; expression 806 fmol/mg
[5] = target: T2, wild-type alpha-2CAR; details: 10 μM epinephrine vs 1 unit/ml thrombin
[6] = target: T2, wild-type alpha-2CAR; details: epinephrine competition, absence of GTP
[7] = target: T4, wild-type alpha-2BAR (Homo sapiens, UniProt P18089); format: cell-based; parameters: expressed in transfected cells; host or cells: COS-7, transient (DEAE-dextran), co-transfected with GRK2; details: 10 μM norepinephrine 15 minutes, GRK2 co-expressed
T4 sequence (P18089 1-450): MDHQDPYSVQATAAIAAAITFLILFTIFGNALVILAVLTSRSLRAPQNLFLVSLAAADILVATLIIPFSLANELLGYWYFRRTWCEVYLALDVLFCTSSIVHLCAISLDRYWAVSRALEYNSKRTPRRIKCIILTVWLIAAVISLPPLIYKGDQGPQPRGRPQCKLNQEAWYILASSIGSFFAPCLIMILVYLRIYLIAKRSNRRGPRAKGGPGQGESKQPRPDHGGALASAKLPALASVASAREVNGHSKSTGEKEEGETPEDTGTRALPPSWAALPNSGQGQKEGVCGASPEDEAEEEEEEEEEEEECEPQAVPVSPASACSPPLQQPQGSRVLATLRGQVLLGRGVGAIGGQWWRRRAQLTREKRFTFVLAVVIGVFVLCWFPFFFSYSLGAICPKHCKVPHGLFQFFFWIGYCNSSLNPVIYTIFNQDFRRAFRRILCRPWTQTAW

[8] = target: T4, wild-type alpha-2BAR; test: Inhibition of forskolin-stimulated adenylyl cyclase, CHO cell membranes, incl. desensitization; format: biochemical; parameters: The human receptor consists of 450 amino acids; expressed in transfected cells; membranes
[9] = target: T1, Lys251 alpha-2AAR
[10] = target: T5, wild-type Asn251 alpha-2AAR (Homo sapiens, UniProt P08913); details: expression 2360±263 fmol/mg
T5 sequence (P08913 16-465): T1 sequence (P08913 16-465 N266K) with K251N

enhanced [35S]GTPyS binding for the Lys251 receptor as compared to the Asn251 receptor [1]: 45% | Max Inhibition (%) of adenylyl cyclase [2]: 56.8 ± 1.41% | EC50 [3]: 5500 ± 2110 nM
SMILES: CCN1CCc2nc(N)oc2CC1 [BHT-933]

SMILES: Brc1c(NC2=NCCN2)ccc2nccnc12 [UK 14304]
enhanced [35S]GTPyS binding for the Lys251 receptor as compared to the Asn251 receptor [1]: ~40% | Max Inhibition (%) of adenylyl cyclase [2]: 67.6 ± 2.09%

SMILES: Clc1cccc(Cl)c1N=C1NCCN1 [clonidine]
Max Inhibition (%) of adenylyl cyclase [2]: 38.5 ± 2.44%

SMILES: CNC[C@H](O)c1ccc(O)c(O)c1 [epinephrine]
stimulated accumulation of inositol phosphates over basal [4]: 3Q | agonist-promoted inhibition of adenylyl cyclase ([2]; lower expressing line, 565 fmol/mg): 73% | MAP kinase stimulation as a percent of the thrombin response [5]: 128 | % RH (percentage of receptors in the high-affinity state) [6]: 42%

SMILES: N=C(N)N/N=C/c1c(Cl)cccc1Cl [guanabenz]
enhanced [35S]GTPyS binding for the Lys251 receptor as compared to the Asn251 receptor [1]: 72% | Max Inhibition (%) of adenylyl cyclase [2]: 53.8 ± 1.99%

SMILES: NC[C@H](O)c1ccc(O)c(O)c1 [norepinephrine]
enhanced [35S]GTPyS binding for the Lys251 receptor as compared to the Asn251 receptor [1]: ~40% | fold increase in receptor phosphorylation with agonist exposure [7]: 5.84±0.49 fold | Desensitization % ([8]; after 10 μM norepinephrine 30 min at 37° C.): ~54% | Submax inhibition % Ctrl ([8]; at the EC50 of control membranes, cells pretreated with media alone): 16.5±3.9% | Max Inhibition of forskolin-stimulated adenylyl cyclase ([8]; receptor density 626±54 fmol/mg): 28.5±1.6% | Max Inhibition (%) of adenylyl cyclase [2]: 76.6 ± 1.60%

Max Inhibition (%) of adenylyl cyclase [2]: 27.0 ± 2.70% | augmented function (adenylyl cyclase inhibition) compared to the Asn251 receptor ([9]; Lys251 vs Asn251): ~40% | Maximal inhibition of forskolin-stimulated adenylyl cyclase ([9]; expression 2590±140 fmol/mg): 50±6.6% | Maximal inhibition of forskolin-stimulated adenylyl cyclase [10]: 35±4.7%
SMILES: Cc1cc(C(C)(C)C)c(O)c(C)c1CC1=NCCN1 [oxymetazoline]
